{
  "source": "patent US9572802B2",
  "about": "(Theravance Respiratory Company, LLC, priority 2009, dated 2017)",
  "note": "Structures can show the parent of a compound that is named as a salt.",
  "data": [
    {"test_system": "methacholine (MCh)-induced bronchoconstriction", "assay": "Rat Einthoven assay: bronchoprotection against methacholine (MCh)-induced bronchoconstriction", "format": "in vivo", "details": "100 μg by inhalation, bronchoprotective effect present", "description": "(§1) This assay measures the ability of a test compound to provide bronchoprotection against methacholine (MCh)-induced bronchoconstriction in a rat. Male Sprague-Dawley rats (Harlan, Indianapolis, Ind.), weighing between 200 g and 350 g, were used for all studies. Test compound or vehicle (sterile deionized water) were dosed by inhalation (1H) over a 10 min period in a pie shaped inhalation chamber (R+S Molds, San Carlos, Calif.) using 5 mL of dosing solution. […] Rats were dosed with 100 μg of test compound unless otherwise indicated. At predetermined time points, rats were anesthetized with all intraperitoneal (IP) injection of 120 mg/kg inactin (thiobutabarbital). A supplemental dose (40 mg/kg, IP) was administered if the animal responded to physical stimuli (e.g. toe pinch). The surgical site was shaved and a 1-2 cm midline incision of the ventral aspect of the neck was made. The jugular vein was isolated and cannulated with a saline-filled polyethylene catheter (PE-50) to allow IV infusion of MCh. Trachea was dissected free and cannulated with a 14G needle (#NE-014, Small Parts, Miami Lakes, Fla.). After placement of the tracheal cannula, each rat was ventilated using a respirator (Model 683, Harvard Apparatus, Inc., Mass.) set at a stroke volume of 1 mL/100 g body weight (but not exceeding 2.5 mL volume) and a rate of 90 strokes per minute. A T-connector was placed along the respirator expiratory tubing to allow for measurement of changes in ventilation pressure (VP) using a Biopac transducer that was connected to a Biopac […]) pre-amplifier. Body temperature was maintained at 37° C. using a heating pad. Changes in VP were recorded using the Acknowledge Data Collection Software (Santa Barbara, Calif.). Baseline values were collected for at least 2.5 min. Rats were then challenged with non-cumulative intravenous (IV) infusions of 40 and 80 μg/kg MCh. MCh was infused intravenously for 2.5 minutes from a syringe pump (sp210iw, World Precision Instruments, Inc., Sarasota, Fla.) at a rate of 2 mL/kg/min, with a 2 minute interval between the two doses of MCh. Changes in ventilation pressure (cm H2O) in treated animals are expressed as % inhibition of MCh response relative to control animals. Other bronchoconstrictors, such as histamine and acetylcholine, can be used in place of MCh in this assay. Additonally, guinea pigs can be used instead of rats. […] Inhibition greater than or equal to 30 percent at 24 h is indicative of a long duration of action.", "values": [
      {"molecule": "CC(Cc1cccc(CC(=O)NCCCCN(C)C(=O)CCN2CCC(OC(=O)Nc3ccccc3-c3ccccc3)CC2)c1)NC[C@H](O)c1ccc(O)c2[nH]c(=O)ccc12", "note": "(stereo in doubt) [Compound I-23, Biphenyl-2-ylcarbamic acid 1-[2-({4-[2-(3-{(R)-2-[(R)-2-hydroxy-2-(8-hydroxy-2-oxo-1,2-dihydroquinolin-5-yl)ethylamino]propyl}phenyl)acetylamino]butyl}methylcarbamoyl)ethyl]piperidin-4-yl ester ditrifluoroacetic acid salt]", "Broncho. at 24 h": "Yes (Bronchoprotective effect present at 24 h, e.g., ≧30% inhibition of the MCh response at 24 h in the rat Einthoven assay (100 μg))"},
      {"molecule": "CN(CCCC(=O)Nc1cccc(CCNC[C@H](O)c2ccc(O)c3[nH]c(=O)ccc23)c1)C(=O)CCN1CCC(OC(=O)Nc2ccccc2-c2ccccc2)CC1", "note": "[Compound I-7, Biphenyl-2-ylcarbamic Acid 1-(2-{[3-(3{2-[(R)-2-Hydroxy-2-(8-hydroxy-2-oxy-1,2-dihydroquinolin-5-yl)ethylamino]ethyl}phenylcarbamoyl)-propyl]methylcarbamoyl}ethyl)piperidin-4-yl Ester Ditrifluoroacetic Acid Salt]", "Broncho. at 24 h": "Yes (Bronchoprotective effect present at 24 h, e.g., ≧30% inhibition of the MCh response at 24 h in the rat Einthoven assay (100 μg))"},
      {"molecule": "C[C@@H](Cc1cccc(CC(=O)NCCCN(C)C(=O)CCN2CCC(OC(=O)Nc3ccccc3-c3ccccc3)CC2)c1)NC[C@H](O)c1ccc(O)c2[nH]c(=O)ccc12", "note": "[Compound I-13, Biphenyl-2-ylcarbamic Acid 1[2-({3-[2-(3-{(S)-2-[(R)-2-Hydroxy-2-(8-hydroxy-2-oxo-1,2-dihydroquinolin-5-yl)ethylamino]propyl}phenyl)acetylaminol]-propyl}methylcarbamoyl)ethyl]piperidin-4-yl Ester Ditrifluoroacetic Acid Salt]", "Broncho. at 24 h": "Yes (Bronchoprotective effect present at 24 h, e.g., ≧30% inhibition of the MCh response at 24 h in the rat Einthoven assay (100 μg))"},
      {"molecule": "C[C@H](Cc1cccc(CC(=O)NCCCN(C)C(=O)CCN2CCC(OC(=O)Nc3ccccc3-c3ccccc3)CC2)c1)NC[C@H](O)c1ccc(O)c2[nH]c(=O)ccc12", "note": "[Compound I-12, Biphenyl-2-ylcarbamic acid 1-[2-({3-[2-(3-{(R)-2-[(R)-2-hydroxy-2-(8-hydroxy-2-oxo-1,2-dihydroquinolin-5-yl)ethylamino]propyl}phenyl)acetylamino]propyl}methylcarbamoyl)ethyl]piperidin-4-yl ester ditrifluoroacetic acid salt]", "Broncho. at 24 h": "No"},
      {"molecule": "Cc1cc(CNC[C@H](O)c2ccc(O)c3[nH]c(=O)ccc23)ccc1NC(=O)CCCN(C)C(=O)CCN1CCC(OC(=O)Nc2ccccc2-c2ccccc2)CC1", "note": "[Compound I-2, Biphenyl-2-ylcarbamic acid 1-(2-{[3-(4-{[(R)-2-hydroxy-2-(8-hydroxy-2-oxo-1,2-dihydroquinolin-5-yl)ethylamino]methyl}-2-methylphenylcarbamoyl)propyl]methylcarbamoyl}ethyl)piperidin-4-yl ester ditrifluoroacetic acid salt]", "Broncho. at 24 h": "No"},
      {"molecule": "CN(C(=O)CCN1CCC(OC(=O)Nc2ccccc2-c2ccccc2)CC1)c1cccc(CC(=O)Nc2cccc(CCNC[C@H](O)c3ccc(O)c4[nH]c(=O)ccc34)c2)c1", "note": "[Compound I-62, ditrifluoroacetic acid salt]", "Broncho. at 24 h": "Yes (Bronchoprotective effect present at 24 h, e.g., ≧30% inhibition of the MCh response at 24 h in the rat Einthoven assay (100 μg))"},
      {"molecule": "Cc1ccc(C(=O)Nc2ccc(CC(C)NC[C@H](O)c3ccc(O)c4[nH]c(=O)ccc34)cc2)cc1N(C)C(=O)CCN1CCC(OC(=O)Nc2ccccc2-c2ccccc2)CC1", "note": "(stereo partly drawn) [Compound I-41, Biphenyl-2-ylcarbamic acid 1-(2-{[5-(4-{2-[(R)-2-hydroxy-2-(8-hydroxy-2-oxo-1,2-dihydroquinolin-5-yl)-ethylamino]propyl}phenylcarbamoyl)-2-methylphenyl]-methylcarbamoyl}ethyl)piperidin-4-yl ester]", "Broncho. at 24 h": "No"}
    ]},
    {"test_system": "methacholine (MCh)-induced bronchoconstriction", "assay": "Rat Einthoven assay: bronchoprotection against methacholine (MCh)-induced bronchoconstriction", "format": "in vivo", "details": "inhaled or nasal, 100 μg by inhalation, 24 h, bronchoprotective effect present, read-out: Broncho. at 24 h", "description": "as §1", "units": {"inhibition in vivo at 0.1 mg": "%"}, "values": [
      {"molecule": "CN(C(=O)CCN1CCC(OC(=O)Nc2ccccc2-c2ccccc2)CC1)c1cccc(C(=O)Nc2ccc(CNC[C@H](O)c3ccc(O)c4[nH]c(=O)ccc34)cc2)c1", "note": "[Compound I-25]", "inhibition in vivo at 0.1 mg": "> 30"}
    ]}
  ]
}
